The subject of test [1] is ABUTH. Description: Pre-emergence herbicidal action against ABUTH. The class given is in vivo, Abutilon theophrasti. As to conditions: 80 g/ha, scored visually after 3 weeks vs untreated controls (100% = plants have died, 0% = like control plants). The gist of the method: (§1)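 Herbicidal effect was assessed 3 weeks after treatment by visual comparison with untreated controls, 100% denoting dead plants. Aqueous WP or EC preparations had been applied at 600 to 800 l/ha with 0.2% wetting agent to the soil covering freshly sown seeds.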

The test system of test [2] is ALOMY. As to the kind of experiment: Pre-emergence herbicidal action against ALOMY. The class given is in vivo, Alopecurus myosuroides. As to conditions: pre-emergence. Summed up:
as §1

The subject of test [3] is AMARE. Description: Pre-emergence herbicidal action against AMARE. It counts as in vivo, Amaranthus retroflexus. The gist of the method: as §1
Test [4] relates to MATIN. As to the kind of experiment: Pre-emergence herbicidal action against MATIN. It counts as in vivo, Matricaria inodora. The gist of the method: as §1
Test [5] has as its system PHBPU. Description: Pre-emergence herbicidal action against PHBPU. It counts as in vivo, Pharbitis purpurea. As to conditions: dosage 80 g/ha. The gist of the method: as §1
For test [6], the system named is POLCO. As to the kind of experiment: Pre-emergence herbicidal action against POLCO. It counts as in vivo, Polygonum convolvulus. Summed up:
as §1

Test [7] concerns SETVI. As to the kind of experiment: Pre-emergence herbicidal action against SETVI. It counts as in vivo, Setaria viridis. As to conditions: dosage 80 g/ha. The gist of the method: as §1
Test [8] deals with VERPE. Description: Pre-emergence herbicidal action against VERPE. The class given is in vivo, Veronica persica. As to conditions: dosage 80 g/ha. The gist of the method:
as §1

Test [9] deals with VIOTR. Description: Pre-emergence herbicidal action against VIOTR. The class given is in vivo, Viola tricolor. The gist of the method:
as §1

The subject of test [10] is DIGSA. Description: Pre-emergence herbicidal action against DIGSA. It counts as in vivo, Digitaria sanguinalis. As to conditions: dosage 80 g/ha. Summed up:
as §1

In test [11] the test system is ABUTH. As to the kind of experiment: Post-emergence herbicidal action against ABUTH. As to conditions: visual assessment about 3 weeks after treatment vs untreated controls. It counts as in vivo, Abutilon theophrasti. Summed up: (§2)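 Post-emergence greenhouse test; one-leaf stage, 2–3 wk post-sowing, sandy loam. Foliar spray of WP/EC in water, 600–800 l/ha, +0.2% wetting agent. Visual % action at ~3 wk vs untreated (100% = plants dead).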

Test [12] deals with AMARE. As to the kind of experiment: Post-emergence herbicidal action against AMARE. The class given is in vivo, Amaranthus retroflexus. As to conditions: 20 g/ha, visual assessment about 3 weeks after treatment, 100% = plants have died, 0% = like control plants. The gist of the method: as §2
Test [13] deals with MATIN. As to the kind of experiment: Post-emergence herbicidal action against MATIN. It counts as in vivo, Matricaria inodora. Summed up: as §2
Test [14] concerns PHBPU. Description: Post-emergence herbicidal action against PHBPU. It counts as in vivo, Pharbitis purpurea. The gist of the method:
as §2

The test system of test [15] is VERPE. Description: Post-emergence herbicidal action against VERPE. The class given is in vivo, Veronica persica. As to conditions: 20 g/ha. Summed up:
as §2

The test system of test [16] is AVEFA. As to the kind of experiment: Pre-emergence herbicidal action against AVEFA. It counts as in vivo, Avena fatua. As to conditions: Avena fatua, 504 h; 80 g/ha, pre-emergence. The gist of the method:
as §1

The subject of test [17] is ECHCG. As to the kind of experiment: Pre-emergence herbicidal action against ECHCG. It counts as in vivo, Echinochloa crus-galli. As to conditions: Echinochloa crus-galli, 504 h, 80 g/ha. Summed up:
as §1

Test [18] deals with ALOMY. As to the kind of experiment: Post-emergence herbicidal action against ALOMY. It counts as in vivo, Alopecurus myosuroides. As to conditions: Alopecurus myosuroides, 504 h, visual assessment about 3 weeks after treatment vs untreated controls. The gist of the method: as §2
The test system of test [19] is ECHCG. Description: Post-emergence herbicidal action against ECHCG. As to conditions: Echinochloa crus-galli, 504 h, dosage 20 g/ha. It counts as in vivo, Echinochloa crus-galli. Summed up: as §2
Test [20] concerns SETVI. As to the kind of experiment: Post-emergence herbicidal action against SETVI. It counts as in vivo, Setaria viridis. As to conditions: Setaria viridis, 504 h. The gist of the method: as §2
For test [21], the system named is VIOTR. As to the kind of experiment: Post-emergence herbicidal action against VIOTR. The class given is in vivo, Viola tricolor. As to conditions: Viola tricolor, 504 h, 20 g/ha. The gist of the method: as §2
Setting [22] is: 80 g/ha, scored visually after 3 weeks vs untreated controls (100% = plants have died, 0% = like control plants).

The structures appear in SMILES notation.

For `CCn1nnnc1NC(=O)c1ccc(C(F)(F)F)c(C(=O)NC2CCC2)c1Cl` [Example 2-146], the “Pre-emergence action against ABUTH (herbicidal activity)” value in test [1] is reported as 90%. Also, the “Pre-emergence action against ALOMY (herbicidal activity)” value in test [2] (setting [22]) is listed as 80%. Further, the “Pre-emergence action against AMARE in %” value is 100% in [3] (20 g/ha, scored visually after 3 weeks vs untreated controls, 100% = plants have died, 0% = like control plants) and 100% in test [3] (setting [22]). In addition, the “Pre-emergence action against MATIN in %” value in test [4] (dosage 20 g/ha) and in test [4] (dosage 80 g/ha) was 100% each time. For the same molecule, the “Pre-emergence action against PHBPU in %” value in test [5] was 90%. The “Pre-emergence action against POLCO in %” value in [6] (dosage 20 g/ha) and in test [6] (dosage 80 g/ha) was 80% each time. For the same molecule, the “Pre-emergence action against SETVI in %” value in test [7] is 100%. In [8], the “Pre-emergence action against VERPE in %” value came out at 80%. Further, the “Pre-emergence action against VIOTR in %” value in [9] (dosage 20 g/ha) and in test [9] (dosage 80 g/ha) was 100% each time. Moreover, the “Pre-emergence action against DIGSA in %” value in test [10] amounted to 100%. For the same molecule, in test [11] (dosage 20 g/ha), the “Post-emergence action against ABUTH in %” value is 80%. The “Post-emergence action at 20 g/ha against AMARE in %” value in test [12] was 80%. The “Post-emergence action against MATIN in %” value is 80% in [13] (dosage 5 g/ha) and 90% in test [13] (dosage 20 g/ha). Besides, the “Post-emergence action against PHBPU in %” value in [14] (dosage 5 g/ha) is given as 80%; in [14] (dosage 20 g/ha), 90%. Further, in test [15], the “Post-emergence action against VERPE in %” value is recorded as 80%.
One may read the pest or weed control as how far the test organism was held down. The low end stands for a weak effect, the high end for a strong effect. Take `CCNC(=O)c1c(Cl)ccc(C(=O)Nc2nnnn2CC)c1Br` [Example 2-348]: the pest or weed control at 80 g/ha in [1] (Abutilon theophrasti, 504 h) turned out to be 100%; in test [2] (Alopecurus myosuroides, 504 h, 80 g/ha, scored visually after 3 weeks vs untreated controls (100% = plants have died, 0% = like control plants)), 100%; in test [3] (Amaranthus retroflexus, 504 h, 80 g/ha, scored visually after 3 weeks vs untreated controls, 100% = plants have died, 0% = like control plants), 100%; in [16] it was 100%; in test [17], 100%; in test [4] (Tripleurospermum inodorum, 504 h, dosage 80 g/ha) it was 90%. Besides, the pest or weed control at 80 g/ha turned out to be 80% in test [5] (Ipomoea purpurea, 504 h); 90% in test [6] (Fallopia convolvulus, 504 h, dosage 80 g/ha); 100% in test [7] (Setaria viridis, 504 h); 80% in [8] (Veronica persica, 504 h); 100% in test [9] (Viola tricolor, 504 h, dosage 80 g/ha). For the same molecule, the pest or weed control at 20 g/ha was found to be 90% in test [2] (Alopecurus myosuroides, 504 h, 20 g/ha, scored visually after 3 weeks, 100% = plants have died, 0% = like control plants); 100% in test [3] (Amaranthus retroflexus, 504 h, 20 g/ha, scored visually after 3 weeks vs untreated controls, 100% = plants have died, 0% = like control plants); 90% in test [4] (Tripleurospermum inodorum, 504 h, dosage 20 g/ha); 90% in test [11] (Abutilon theophrasti, 504 h, dosage 20 g/ha); 90% in test [18] (dosage 20 g/ha); 100% in test [12] (Amaranthus retroflexus, 504 h). Moreover, the pest or weed control at 20 g/ha is 80% in test [19]; 80% in test [14] (Ipomoea purpurea, 504 h, dosage 20 g/ha); 100% in test [20] (dosage 20 g/ha); 80% in test [21]. For the same molecule, the pest or weed control at 5 g/ha in test [11] (Abutilon theophrasti, 504 h, dosage 5 g/ha) is 90%; in test [18] (dosage 5 g/ha) it was 80%; in test [20] (dosage 5 g/ha) it was 80%.

Source of the values: US12655116B2, “Substituted isophthalic acid diamides” (Bayer Aktiengesellschaft, priority 2020, dated 2026).
